Read-outs that look alike come from different tables or passages of the source.
Legend:
COLO829 melanoma cell = tested on: COLO829 melanoma cell; parameters: method as in PMID 32967177; conditions: read-out: IC50, cell proliferation; cited from earlier work
IGR39 cells = conditions: IGR39 proliferation; read-out: IC50, antiproliferative effect on IGR39; cited from earlier work
[1] = tested on: skin papillomas caused by the injection of DMBA and croton oil; parameters: method as in PMID 28010928; conditions: 5 mg/kg; cited from earlier work
[2] = tested on: IGR39 human melanoma cells; assay: MTT cell viability assay, IGR39; type: cell-based
Experimental: (§1) The MTT assay was first described as a sensitive, quantitative, and reliable colorimetric assay to measure the viability, proliferation, and activation of cells. Cell viability was assessed at 24 and 72 h of treatment to evaluate cytotoxicity and the effect on cell proliferation of the decavanadate compound, respectively. The concentrations of the decavanadate compound have been determined by weighing the compound in its crystal form and then solubilizing it in distilled water.
(§2) All cell lines were seeded in 96-well plates (Nunc, Roskilde, Denmark) at a density of 10^4 cells per well and were incubated overnight, before treatment with different concentrations of the decavanadate compound. After 24 or 72 h of treatment, fresh media solution containing MTT at 0.5 mg/mL was added to cells and incubated for 3 h at 37°C. The formed formazan crystals were then dissolved in DMSO, and the absorbance was measured at 560 nm using a BioTek EON Microplate Spectrophotometer (Fisher Scientific). Cell viability was expressed as a percentage of the viable cell number of the untreated cells (control [CTR]).
(§3) The concentration of the decavanadate compound required for 50% growth inhibition (IC50 value) was estimated as resulting in a 50% decrease in absorbance, compared to the CTR.

[3] = tested on: murine B16-F10 melanoma cells; conditions: cited from earlier work
[4] = tested on: IGR37 human melanoma cells; assay: MTT cell viability assay, IGR37; type: cell-based
Experimental: as §1, §2, §3

[5] = tested on: normal human keratinocyte cells (HaCaT); conditions: cited from earlier work
human SK-MEL-28 melanoma = conditions: cited from earlier work
[6] = tested on: allograft model of B16-F10 cells in mice; parameters: method as in PMID 29407869, PMID 6722991; conditions: cited from earlier work
A375 human melanoma cell = tested on: A375 human melanoma cell; parameters: method as in PMID 33132760; conditions: A375, 24 h treatment, cited from earlier work
[7] = tested on: UACC-62 human melanoma cells; conditions: UACC-62, at 5 μM; cited from earlier work

In the case of `CN(C)c1ccc(O)c2c1C[C@H]1C[C@H]3[C@H](N(C)C)C(O)=C(C(N)=O)C(=O)[C@@]3(O)C(O)=C1C2=O` [Minocycline], the IC50 (COLO829 melanoma cell) is given as 13.9 µM.

For (NH4)4Li2V10O2810H2O, the IC50 (IGR39 cells) is listed as 9.8 µM.

For `[O]=[V]([O-])([O-])[O-]` [orthovanadate], the “Incidence of skin papillomas” value [1] is given as “partially inhibited the incidence of skin papillomas”.

In the case of `C[C@H]1c2cccc(O)c2C(=O)C2=C(O)[C@]3(O)C(=O)C(C(N)=O)=C(O)[C@@H](N(C)C)[C@@H]3[C@@H](O)[C@@H]21` [doxycycline], the IC50 (COLO829 melanoma cell) is given as 16.2 µM.

For (C4N2H7)6(C4N2H6)2V10O28, the IC50 (IGR39 cells) is given as 7 µM.

For `N.N.[Cl][Pt][Cl]` [Cisplatin, cisplatin], the IC50 ([2]; IGR39, 24 h treatment) was 83 µM, the “IC50, cell viability” value ([2]; IGR39, 24 h treatment) was 25 µg/mL and the IC50 ([2]; IGR39, 72 h treatment) was 12.5 µM. The “IC50, cell viability” value ([2]; IGR39, 72 h treatment) was 3.8 µg/mL, the IC50 ([3]; B16-F10, 24 h) was 19.5 µM and the IC50 ([3]; B16-F10, 72 h) was 10 µM. For the same compound, the IC50 ([4]; IGR37, 24 h treatment) was 26.5 µM, the “IC50, cell viability” value ([4]; IGR37, 24 h treatment) was 8 µg/mL and the IC50 ([4]; IGR37, 72 h treatment) was 3 µM. The “IC50, cell viability” value ([4]; IGR37, 72 h treatment) was 0.9 µg/mL, the IC50 ([5]; HaCaT, 24 h) was 23.9 µM and the IC50 ([5]; HaCaT, 72 h) was 23.9 µM. For the same compound, the IC50 ([5]; keratinocyte cell line, 'was reported', no reference printed in the abstract) was 23.9 µM, the IC50 (human SK-MEL-28 melanoma; SKMEL28, 24 h) was greater than 12.5 µM and the IC50 (human SK-MEL-28 melanoma; SKMEL28, 72 h) was 9.5 µM.

In the case of `[O]=[V]([O-])([O-])[O-]` [vanadate], the “Tumor size and incidence” value [6] is listed as “significantly decreased tumor size and their incidence”.

In the case of `C[C@@H]1O[C@@H](OC[C@H]2O[C@@H](Oc3c(-c4ccc(O)c(O)c4)oc4cc(O)cc(O)c4c3=O)[C@H](O)[C@@H](O)[C@@H]2O)[C@H](O)[C@H](O)[C@H]1O` [rutoside], the “IC50, cell viability” value (A375 human melanoma cell) is listed as “about 100 μg/mL” and the IC50 (A375 human melanoma cell; read-out: IC50, cell viability) is listed as roughly 163 µM.

In the case of `O=S(=O)([O-])[O-].[O]=[V+2]` [vanadyl sulfate], the “Tumor size and incidence” value [6] is given as “significantly decreased tumor size and their incidence”.

In the case of Mg(H2O)6(C4N2H7)4V10O28·4H2O, the IC50 (IGR39 cells) is given as 2 µM.

In the case of metformin–decavanadate [Metf-V10], the Inhibition of proliferation [7] is given as 80%.

Reference: article PMC11742080, “Decavanadate Compound Displays In Vitro and In Vivo Antitumor Effect on Melanoma Models” (Bioinorganic Chemistry and Applications, 2025)
